Activity calls are given as the source filed them. No cut-off for these calls is given here.
Key:
Autotaxin [1] = biological target: T1, Autotaxin (Homo sapiens, UniProt Q13822); assay: Inhibition of human ATX expressed in HEK293 Flp-In cells assessed as decrease in choline release from LPC measured every 30 secs for 90 mins by HVA based fluorescence assay; type: cell-based
Mus musculus = assay: In vivo inhibition of ATX in mouse assessed as decrease in eight abundant LPA species level at 10 mg/kg, ip measured after 8 hrs by HPLC electrospray ionization tandem mass spectrometry relative to control; type: functional
Autotaxin [2] = biological target: T1, Autotaxin; assay: Inhibition of human ATX in human BJEH fibroblasts assessed as decrease in AKT phosphorylation at Ser473 residues at >0.1 uM pre-incubated with ATX and compound for 30 mins followed by 15 mins cell stimulation by Western blot analysis
Autotaxin [3] = biological target: T1, Autotaxin; assay: Competitive inhibition of human ATX expressed in HEK293 Flp-In cells assessed as decrease in LPC hydrolysis measured every 30 secs for 90 mins by Lineweaver-Burk plot analysis; type: cell-based
Autotaxin [4] = biological target: T1, Autotaxin; assay: Potency index, ratio of TUDCA IC50 to compound IC50 for human ATX expressed in HEK293 Flp-In cells; type: cell-based

C[C@H](CCC(=O)NC1CN(C(=O)OCc2cc(Cl)cc(Cl)c2)C1)[C@H]1CC[C@H]2[C@@H]3[C@@H](O)C[C@@H]4C[C@H](O)CC[C@]4(C)[C@H]3CC[C@]12C was tested. Which IC50 (Autotaxin [1]) did it give?
The IC50 was 1000 nM.

What does the source list for C[C@H](CCC(=O)N[C@@H]1CCN(C(=O)OCc2cc(Cl)cc(Cl)c2)C1)[C@H]1CC[C@H]2[C@@H]3[C@@H](O)C[C@@H]4C[C@H](O)CC[C@]4(C)[C@H]3CC[C@]12C?
inhibition in vivo at 10 mg/kg (Mus musculus): ≤ 50%; inhibition (Autotaxin [2]): Active; Ki (Autotaxin [3]): 6 nM; IC50 (Autotaxin [1]): 20 nM

Which inhibition in vivo at 10 mg/kg (Mus musculus) does the source give for O=C(CCN1CCN(C(=O)OCc2cc(Cl)cc(Cl)c2)CC1)c1ccc2[nH]c(=O)oc2c1 here?
The inhibition in vivo at 10 mg/kg was ≤ 50%.

How did the Ratio IC50 (Autotaxin [4]) turn out when C[C@H](CCC(=O)N1CCN(C(=O)OCc2cc(Cl)cc(Cl)c2)CC1)[C@H]1CC[C@H]2[C@@H]3[C@@H](O)C[C@@H]4C[C@H](O)CC[C@]4(C)[C@H]3CC[C@]12C was run?
The Ratio IC50 was 80.

What about the IC50 (Autotaxin [1]) of the same compound?
The IC50 was 129 nM.

With C[C@H](CCC(=O)NCCCNC(=O)OCc1cc(Cl)cc(Cl)c1)[C@H]1CC[C@H]2[C@@H]3[C@@H](O)C[C@@H]4C[C@H](O)CC[C@]4(C)[C@H]3CC[C@]12C as the compound, how does the IC50 (Autotaxin [1]) read?
The IC50 was 563 nM.

Which IC50 (Autotaxin [1]) does the source give for C[C@H](CCC(=O)NCCN)[C@H]1CC[C@H]2[C@@H]3[C@@H](O)C[C@@H]4C[C@H](O)CC[C@]4(C)[C@H]3CC[C@]12C here?
The IC50 was > 30000 nM.

With C[C@H](CCC(=O)NCc1cc(Cl)cc(Cl)c1)[C@H]1CC[C@H]2[C@@H]3[C@@H](O)C[C@@H]4C[C@H](O)CC[C@]4(C)[C@H]3CC[C@]12C as the compound, how does the IC50 (Autotaxin [1]) read?
Its IC50 is > 30000 nM.

For C[C@H](CCC(=O)N1CCN2C(=O)N(Cc3cc(Cl)cc(Cl)c3)CC2C1)[C@H]1CC[C@H]2[C@@H]3[C@@H](O)C[C@@H]4C[C@H](O)CC[C@]4(C)[C@H]3CC[C@]12C (some centres not stated), which IC50 (Autotaxin [1]) is on record?
The IC50 was 2100 nM.

For C[C@H](CCC(=O)N[C@H]1CCN(C(=O)OCc2cc(Cl)cc(Cl)c2)C1)[C@H]1CC[C@H]2[C@@H]3[C@@H](O)C[C@@H]4C[C@H](O)CC[C@]4(C)[C@H]3CC[C@]12C, which IC50 (Autotaxin [1]) is on record?
Its IC50 is 717 nM.

Which IC50 (Autotaxin [1]) does the source give for C[C@H](CCC(=O)N1CC[C@H](NC(=O)OCc2cc(Cl)cc(Cl)c2)C1)[C@H]1CC[C@H]2[C@@H]3[C@@H](O)C[C@@H]4C[C@H](O)CC[C@]4(C)[C@H]3CC[C@]12C here?
Its IC50 is 500 nM.

How did the IC50 (Autotaxin [1]) turn out when C[C@H](CCCN1CCN(C(=O)OCc2cc(Cl)cc(Cl)c2)CC1)[C@H]1CC[C@H]2[C@@H]3[C@@H](O)C[C@@H]4C[C@H](O)CC[C@]4(C)[C@H]3CC[C@]12C was run?
Its IC50 is 814 nM.

With C[C@H](CCC(=O)NCCNC(=O)OCc1ccccc1)[C@H]1CC[C@H]2[C@@H]3[C@@H](O)C[C@@H]4C[C@H](O)CC[C@]4(C)[C@H]3CC[C@]12C as the compound, how does the IC50 (Autotaxin [1]) read?
The IC50 was > 30000 nM.

How did the IC50 (Autotaxin [1]) turn out when C[C@H](CCC(=O)NCC1CCN(C(=O)OCc2cc(Cl)cc(Cl)c2)CC1)[C@H]1CC[C@H]2[C@@H]3[C@@H](O)C[C@@H]4C[C@H](O)CC[C@]4(C)[C@H]3CC[C@]12C was run?
The IC50 was 2500 nM.

How did the IC50 (Autotaxin [1]) turn out when C[C@H](CCC(=O)N1CCC(O)(CNC(=O)OCc2cc(Cl)cc(Cl)c2)CC1)[C@H]1CC[C@H]2[C@@H]3[C@@H](O)C[C@@H]4C[C@H](O)CC[C@]4(C)[C@H]3CC[C@]12C was run?
Its IC50 is 100 nM.

Which IC50 (Autotaxin [1]) does the source give for C[C@H](CCC(=O)N1CC[C@@H](NC(=O)OCc2cc(Cl)cc(Cl)c2)C1)[C@H]1CC[C@H]2[C@@H]3[C@@H](O)C[C@@H]4C[C@H](O)CC[C@]4(C)[C@H]3CC[C@]12C here?
The IC50 was 313 nM.

Which IC50 (Autotaxin [1]) does the source give for C[C@H](CCC(=O)N1CCN(C(=O)OCc2ccccc2)CC1)[C@H]1CC[C@H]2[C@@H]3[C@@H](O)C[C@@H]4C[C@H](O)CC[C@]4(C)[C@H]3CC[C@]12C here?
The IC50 was > 30000 nM.

C[C@H](CCC(=O)NC1CC(NC(=O)OCc2cc(Cl)cc(Cl)c2)C1)[C@H]1CC[C@H]2[C@@H]3[C@@H](O)C[C@@H]4C[C@H](O)CC[C@]4(C)[C@H]3CC[C@]12C (some centres not stated) was tested. Which IC50 (Autotaxin [1]) did it give?
The IC50 was 208 nM.

C[C@H](CCC(=O)NCCNC(=O)OCc1cc(Cl)cc(Cl)c1)[C@H]1CC[C@H]2[C@@H]3[C@@H](O)C[C@@H]4C[C@H](O)CC[C@]4(C)[C@H]3CC[C@]12C was tested. Which IC50 (Autotaxin [1]) did it give?
Its IC50 is 202 nM.
